# Test results taken from patent US12312599B2, “Methods, compositions, and kits for producing beige adipocytes and treating metabolic disorders” (MaineHealth, priority 2018, dated 2025).
# Assay: Activity of Y-27632 stock solutions
# Type: physicochemical
# Conditions: water based versus DMSO stock
# Description: Note: Only use Y-27632 stock solutions that have been resuspended in DMSO. […] Conduct Mesoderm induction of iPSC in a laminar flow cabinet. • 3. Expand cells in NutriStem hPSC XF Medium overnight and change 100% of the medium without Y-27632 every 24 hours in a laminar flow cabinet for cell culture. When changing media, tilt plate up and allow media to pool at the bottom of wells. Aspirate the pooled medium without touching the surface of the plate. Replace with medium warmed to room temperature by pipetting 2 ml down the side of the wells. Cell Passaging • 1. Expand cell colonies until they have reached 70-80% confluence in high-density areas of the wells. High-density accumulation can occur along the edges of the well as well as the middle. Cells permitted to reach high density will lose their potential for differentiation after multiple passages. • 2. Prior to cell passage, warm cell wash buffer and NutriStem hPSC XF Medium to room temperature. Conduct cell passage in a laminar flow cabinet. • 3. Aspirate NutriStem hPSC XF Medium from wells with vacuum aspirator and wash with PBS without calcium or magnesium. Remove PBS and add 1 ml of ReLeSR reagent to side of well. Agitate plate to allow ReLeSR reagent to spread evenly on the surface. • 4. Aspirate ReLeSR reagent with vacuum aspirator after 30 seconds, which will leave behind a thin film of liquid. […]
smiles,measurement,value
C[C@@H](N)[C@H]1CC[C@H](C(=O)Nc2ccncc2)CC1 [Y-27632],inhibitor activity of water based stock solutions,lose significant inhibitor activity
